{"source": "patent US20210106574A1", "about": "“Methods of Treating Cancer” (Tesaro, Inc., priority 2017, published 2021)", "key": {"[1]": {"test_system": "patients with advanced BRCA-mutant ovarian cancer", "details": "cited from earlier work"}, "ovarian cancer patients": {"test_system": "ovarian cancer patients", "details": "cited from earlier work"}, "[2]": {"test_system": "MDA-MB-436, CAPAN-1, GRANTA-519, OVCAR3, HT29 and DLD-1, patient derived Ewing's sarcoma, and TNBC xenograft models", "details": "xenograft models in mice; cited from earlier work"}, "HRR mutant PDX models": {"test_system": "HRR mutant PDX models", "method": "The relative contribution of the loss of BRCA and non-BRCA HRR genes to PARP synthetic lethality in additional indications other than ovarian and breast was also evaluated. To this end, CRISPR/Cas9 technology was utilized to knock-out either the single or both alleles of 11 clinically-relevant HR genes in two different genetic backgrounds."}, "[3]": {"test_system": "cancer cell lines silenced for or carrying mutations of BRCA-1 or BRCA-2; Ewing's sarcoma, ALL, NSCLC, SCLC and ATM-inactivated tumor cell lines", "details": "cell lines silenced for BRCA-1 or BRCA-2 or carrying BRCA-1 or BRCA-2 mutations compared to wild type counterparts; cited from earlier work"}, "PARP activity": {"test_system": "PARP activity", "details": "stimulated by hydrogen peroxide, various cell lines, cited from earlier work"}, "[4]": {"test_system": "platinum-sensitive recurrent ovarian cancer patients", "procedure": "Two cohorts were treated: the germline BRCA mutant positive cohort (gBRCAmut) and the non-germline BRCA cohort (non-gBRCAmut). […] Patients in this cohort were germline BRCA mutation carriers as assessed by the FDA-approved Integrated BRACAnalysis test. Patients in the non-gBRCAmut were negative in the FDA-approved Integrated BRACAnalysis test.\nThis objective is independently evaluated in a cohort of patients with germline BRCA mutation (gBRCAmut) and in a cohort of patients who have high grade serous or high grade predominantly serous histology but without such gBRCA mutations (non-gBRCAmut). […] Accordingly, HRD is used as a tumor biomarker classifier to be evaluated.\nStudy treatment was dispensed to patients on Day 1 and every cycle (28 days) thereafter until the patient discontinued study treatment. Study treatment was administered orally once daily continuously. Three capsules of 100 mg strength were taken at each dose administration. Clinic visits occurred in each cycle (every 4 weeks 3 days). Response evaluation criteria in solid tumors (RECIST) tumor assessment via computed tomography (CT) or magnetic resonance imaging (MRI) scan of abdomen/pelvis and clinically indicated areas was required at the end of every 2-cycles (8-weeks with a window of 7 days from date of visit) through Cycle 14, then at the end of every 3-cycles (12-weeks with a window of 7 days from date of visit) until progression.\nPatients were assessed by the prolongation of progression-free survival (PFS). […] Response Evaluation Criteria in Solid Tumors (RECIST) was used for tumor assessment via a computed tomography (CT) or magnetic resonance imaging (MRI) scan of abdomen/pelvis and clinically indicated areas, which was required at the end of every 2-cycles (8-weeks) through cycle 14 (56-weeks), and then at the end of every 3-cycles (12-weeks) until progression.\nFollowing completion of the NOVA study, formalin-fixed, paraffin-embedded (FFPE) archival tumor samples from NOVA patients were retrospectively analyzed using a pre-specified gene panel. […]"}, "[5]": {"test_system": "HRR11 KO isogenic Dld-1 cell lines", "details": "bi-allelic mutations in BRCA1, BRCA2, PALB2 and ATM (FIG. 5)", "method": "CRISPR/Cas9 technology was used to knock-out either the single or both alleles of 11 clinically-relevant HR genes in two different genetic backgrounds, using Dld-1 and HeLa cell lines. […] Compounds were added 24 h after cell seeding, and then every 3- to 4-days (2-times a week) during the incubation period (for 13-days incubation period)."}, "[6]": {"details": "106 patients, 600 mg orally twice daily"}, "[7]": {"details": "ATM bi-allelic mutant NSCLC PDX models"}}, "note": "pIC50: −log10 of the molar value. Counter-ions that a name gives are not always drawn. Like-named read-outs stand apart in the source and are kept apart here.", "data": [{"molecule": "CNCc1ccc(-c2[nH]c3cc(F)cc4c3c2CCNC4=O)cc1", "note": "[rucaparib, 8-fluoro-2-{4-[(methylamino)methyl]phenyl}-1,3,4,5-tetrahydro-6H-azepino[5,4,3-cd]indol-6-one ((1S,4R)-7,7-dimethyl-2-oxobicyclo[2.2.1]hept-1-yl)methanesulfonic acid salt]", "values": [{"measurement": "Response assessment by independent radiology review", "setting": "[1]; [6]", "value": 42, "unit": "%"}, {"measurement": "median DOR", "setting": "[1]; [6]", "value": 6.7, "unit": "months"}, {"measurement": "Investigator-assessed ORR", "setting": "[1]; platinum-refractory patients", "value": 0, "unit": "%"}, {"measurement": "Investigator-assessed ORR", "setting": "[1]; platinum-resistant patients", "value": 25, "unit": "%"}, {"measurement": "Investigator-assessed ORR", "setting": "[1]; platinum-sensitive patients", "value": 66, "unit": "%"}]}, {"molecule": "O=C(c1cc(Cc2n[nH]c(=O)c3ccccc23)ccc1F)N1CCN(C(=O)C2CC2)CC1", "note": "[olaparib, 4-[(3-{[4-(cyclopropylcarbonyl)piperazin-1-yl]carbonyl}-4-fluorophenyl)methyl]phthalazin-1(2H)-one]", "values": [{"measurement": "responses", "setting": "ovarian cancer patients; in 17 patients with BRCA1 or BRCA2 mutations", "value": 7, "unit": "responses"}, {"measurement": "responses", "setting": "ovarian cancer patients; in the 46 who did not have these mutations", "value": 11, "unit": "responses"}]}, {"molecule": "Cc1ccc(S(=O)(=O)O)cc1.NC(=O)c1cccc2cn(-c3ccc([C@@H]4CCCNC4)cc3)nc12", "note": "[Niraparib, (3S)-3-[4-{7-(aminocarbonyl)-2H-indazol-2-yl}phenyl]piperidine]", "values": [{"measurement": "antitumor activity", "setting": "[2]", "value": "strong antitumor activity"}, {"measurement": "models sensitive to niraparib", "setting": "NSCLC PDX models; [7]", "value": "2 out of 8"}, {"measurement": "models sensitive to niraparib", "setting": "NSCLC PDX models; HRR WT NSCLC PDX models (3 out of 40)", "value": 7.5, "unit": "%"}, {"measurement": "PDX models with strong sensitivity, TGI>70%", "setting": "HRR mutant PDX models; [7]", "value": 33, "unit": "%"}, {"measurement": "PDX models with moderate sensitivity, TGI≥50%", "setting": "HRR mutant PDX models; ATM bi-allelic mutant PDX models", "value": 14, "unit": "%"}, {"measurement": "PDX models with TGI≥50%", "setting": "HRR mutant PDX models; ATM monoallelic mutant PDX models", "value": "0/6"}, {"measurement": "models sensitive with ≥50% TGI", "setting": "HRR mutant PDX models; BAP bi-allelic mutations, across 5-tumor types", "value": 36, "unit": "%"}, {"measurement": "PDX models with moderate sensitivity, ≥50% TGI", "setting": "HRR mutant PDX models; BRCA1/2 bi-allelic mutant PDX models", "value": 43, "unit": "%"}, {"measurement": "PDX models with moderate sensitivity, TGI≥50%", "setting": "HRR mutant PDX models; BRCA2 bi-allelic mutant PDX models", "value": 43, "unit": "%"}, {"measurement": "PDX models with >100% TGI", "setting": "HRR mutant PDX models; OvCa PDX models", "value": 80, "unit": "%"}, {"measurement": "PDX models with strong sensitivity", "setting": "HRR mutant PDX models; PALB2 monoallelic mutant PDX models (1/6)", "value": 17, "unit": "%"}, {"measurement": "niraparib sensitivity based on total growth inhibition (TGI)", "setting": "HRR mutant PDX models; bi-allelic mutations in BRCA1, BRCA2, PALB2 and ATM (FIG. 4)", "value": "strongest niraparib sensitivity"}, {"measurement": "TGI", "setting": "HRR mutant PDX models; sensitive PALB2 monoallelic mutant PDX model", "value": 93, "unit": "%"}, {"measurement": "anti-proliferative activity", "setting": "[3]", "value": "selective anti-proliferative activity"}, {"measurement": "pIC50", "setting": "PARP activity; read-out: IC50, PARP activity in cells", "value": "~8.40"}, {"measurement": "IC90", "setting": "PARP activity; read-out: inhibitory concentration at 90% of control (IC90), PARP activity in cells", "value": "~50", "unit": "nM"}, {"measurement": "Median Progression Free Survival (PFS)", "setting": "[4]; Non-tBRCA1/2 HRR mutant", "value": 15.7}, {"measurement": "Median Progression Free Survival (PFS)", "setting": "[4]; tBRCA1/2 mutant", "value": 15.4}, {"measurement": "effectiveness of niraparib treatment", "setting": "[4]; tBRCA wildtype patients with at least one mutation in 31 DDR gene panel compared to no mutation", "value": "similarly effective"}, {"measurement": "niraparib sensitivity based on total growth inhibition (TGI)", "setting": "[5]", "value": "strongest niraparib sensitivity"}]}]}
